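Tested at 5 concentrations; 48 h exposure; 96-well plates; endpoints linearly interpolated, else capped at highest concentration. The concentration for full growth arrest is given as TGI.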
What was measured:
Test in all cases: growth of human tumour cells (NCI), 48 h
[1] = tested on: KM12 colon
[2] = tested on: BT-549 breast
[3] = tested on: T-47D breast
[4] = tested on: SK-MEL-2 melanoma
[5] = tested on: PC-3 prostate
[6] = tested on: K-562 leukemia
[7] = tested on: TK-10 renal
[8] = tested on: UACC-257 melanoma
[9] = tested on: OVCAR-8 ovarian
[10] = tested on: CCRF-CEM leukemia
[11] = tested on: MALME-3M melanoma
[12] = tested on: SR leukemia
[13] = tested on: RXF 393 renal
[14] = tested on: OVCAR-3 ovarian
[15] = tested on: NCI/ADR-RES ovarian
[16] = tested on: DU-145 prostate
[17] = tested on: HCT-15 colon
[18] = tested on: SK-MEL-28 melanoma
[19] = tested on: MCF7 breast
[20] = tested on: RPMI-8226 leukemia

Measured: TGI

CN1C2CCC1CC(C)(O)C2 (stereo not given)
> 100 µM: [1] | [2] | [3] | [4] | [5] | [6] | [7] | [8] | [9] | [10] | [11] | [12] | [13] | [14] | [15] | [16] | [17] | [18] | [19] | [20]
